Measurements taken from patent US20100099614A1, “Antimicrobial Peptides and Methods of Use” (priority 2008, published 2010).
Several values for one entry are separate records, joined by “and”; a condition that tells them apart may be missing. Equal entries are not always repeated. Where two headings read alike, the source gives them in different places.

What was measured:
[1] = Helical structure by circular dichroism spectroscopy; format: physicochemical; details: 222 nm
Method: The mean residue molar ellipticities of peptides were determined by circular dichroism (CD) spectroscopy, using a Jasco J-810 spectropolarimeter (Easton, Md.) at 5° C. under benign (non-denaturing) conditions (50 mM NaH2PO4/Na2HPO4/100 mM KCl, pH 7.0), hereafter referred to as benign buffer, as well as in the presence of an α-helix inducing solvent, 2,2,2-trifluoroethanol, TFE, (50 mM NaH2PO4/Na2HPO4/[…], pH 7.0 buffer/50% TFE). A 10-fold dilution of an approximately […] stock solution of the peptide analogs was loaded into a 0.1 cm quartz cell and its ellipticity scanned from 195 to 250 nm. The values of molar ellipticities of the peptide analogs at a wavelength of 222 nm were used to estimate the relative α-helicity of the peptides.

[2] = Peptide hydrophobicity by RP-HPLC retention; format: physicochemical; details: pH 2, room temperature
Method: Peptide Synthesis and Purification—Syntheses of the peptides were carried out by solid-phase peptide synthesis using t-butyloxycarbonyl chemistry and MBHA (4-methylbenzhydrylamine) resin (0.97 mmol/g), followed by cleavage of the peptide from the resin as described previously (117-119). However, it is understood in the art that there are other suitable instruments and methods for automated or manual peptide synthesis that could be employed to produce the peptides described herein. Peptide purification was performed by reversed-phase high-performance liquid chromatography (RP-HPLC) on a Zorbax 300 SB-C8 column (250×9.4 mm I.D.; 6.5 μm particle size, 300 Å pore size; Agilent Technologies, Little Falls, Del.) with a linear AB gradient (0.1% acetonitrile/min) at a flow rate of 2 mL/min, where eluent A was 0.2% aqueous trifluoroacetic acid (TFA), pH 2, and eluent B was 0.2% TFA in acetonitrile, where the shallow 0.1% acetonitrile/min gradient started 12% below the acetonitrile concentration required to elute the peptide on injection of analytical sample using a gradient of 1% acetonitrile/min (113). The purity of the peptides was verified by analytical RP-HPLC as described below and further characterized by mass spectrometry and amino acid analysis. Crude and purified peptides were analyzed on an Agilent 1100 series liquid chromatograph. Runs were performed on a Zorbax 300 SB-C8 column (150×2.1 mm I.D.; 5 μm particle size, 300 Å pore size) from Agilent Technologies using a linear AB gradient (1% acetonitrile/min) and a flow rate of 0.25 mL/min, where eluent A was 0.2% aqueous TFA, pH 2, and eluent B was 0.2% TFA in acetonitrile.
Analytical RP-HPLC of Peptides—Peptides were analyzed on an Agilent 1100 series liquid chromatograph (Little Falls, Del.). Runs were performed on a Zorbax 300 SB-C8 column (150×2.1 mm I.D.; 5 μm particle size, 300 Å pore size) from Agilent Technologies using linear AB gradient (1% acetonitrile/min) and a flow rate of 0.25 ml/min, where solvent A was 0.05% aqueous TFA, pH 2 and solvent B was 0.05% TFA in acetonitrile. Temperature profiling analyses were performed in 3° C. increments, from 5° C. to 80° C.

[3] = system: Mycobacterium tuberculosis strain H37Rv
[4] = system: tumor necrosis factor (TNF); assay: Cytokine assay, stimulation of peripheral blood mononuclear cells, ELISA; format: cell-based, human
Method: (§1) Isolation of peripheral blood mononuclear cells (PBMCs) from 5 healthy individuals was performed as described elsewhere (108). Briefly, venous blood was drawn into 10 ml tubes containing 0.2 mg of EDTA (Monoject's-Hertogenbosch, NL). The PBMC fraction was obtained by density centrifugation of blood using Ficoll-Paque (Pharmacia Biotech AB, Sweden). […] The PBMCs were incubated in 96-well tissue culture plates (Greiner, Alphen, NL) at a concentration of 5×10^5 cells per well in a total volume of 200 μl, in the presence or absence of a set of stimuli in different experiments. […] After 24 h of incubation, the supernatants were collected and stored at -80° C. until analysis. Interleukin-6 (IL-6) and tumor necrosis factor (TNF) were measured by ELISA according to the manufacturer's protocol ([…], CLB, Amsterdam, NL). […] Agilent Technologies) with a linear AB gradient (0.2% acetonitrile/min) at a flow rate of 2 ml/min, where mobile phase A was 0.1% aqueous TFA in water and B was 0.1% TFA in acetonitrile. The purity of peptides was verified by analytical RP-HPLC. The peptides were further characterized by electrospray mass spectrometry and amino acid analysis.

Interleukin-6 (IL-6) = assay: as above; format: cell-based, human
Method: as §1

human red blood cells = assay: Hemolytic activity (MHC50/HC50), 18 h microtiter dilution; format: cell-based; details: red cells of human, 18 h
Method: Hemoglobin release was determined spectrophotometrically at 570 nm. […] MHC50 was determined by plot the concentration-lysis format.

Ascomycota fungi = details: Ascomycota fungi
Gram-negative bacteria = assay: Antibacterial activity (MIC), microtiter dilution; format: cell-based
Method: MICs were determined by a standard microtiter dilution method in Mueller Hinton Broth (MHB). Serial dilutions of the 10× compound were added to the microtiter plates in a volume of 10 μL followed by 90 μL of bacteria for an inoculum of 5×10^5 colony-forming units (CFU)/mL. The plates were incubated at 37° C. for 24 h, and the MICs were determined as the lowest peptide concentration that inhibited growth. […]
Alternatively; minimal inhibitory concentrations were determined using a standard microtiter dilution method in a Mueller-Hinton (MH) medium. Briefly, cells were grown overnight at 37° C. in MH broth and diluted in the same medium. Serial dilutions of the peptides were added to the microtiter plates in a volume of 100 μl followed by 10 μl of bacteria for an initial cell concentration of 1×10^5 CFU/ml. Plates were incubated at 37° C. for 24 hours and MICs determined as the lowest peptide concentration that inhibited growth.

[5] = 50% trifluoroethanol (TFE), 5° C.; cited from earlier work
[6] = system: Mycobacterium tuberculosis strain H37Rv; assay: microbe, parasite or virus in culture
[7] = biological target: the molecule itself; assay: RP-HPLC temperature profiling, 5 to 80 C, pH 2 (self-association)
Method: Thus, if the self-association ability of a peptide in aqueous media is too strong (e.g., forming stable folded dimers through interaction of their non-polar faces) this could decrease the ability of the peptide to dissociate to monomer where the dimer cannot effectively pass through the capsule and cell wall to reach the membrane. The ability of the peptides in the present study to self-associate was determined by the technique of RP-HPLC temperature profiling at pH 2 (30,29,42). The reason pH 2 is used to determine self-association of cationic AMPs is that highly positively charged peptides are frequently not eluted from reversed-phase columns at pH 7 due to non-specific binding to negatively charged silanols on the column matrix. This is not a problem at pH 2 since the silanols are protonated (i.e., neutral) and non-specific electrostatic interactions are eliminated. At pH 2, the interactions between the peptide and the reversed-phase matrix involve ideal retention behavior, i.e., only hydrophobic interactions between the preferred binding domain (nonpolar face) of the amphipathic molecule and the hydrophobic surface of the column matrix are present (39). […]

Peptide D1, D-(V13K) = assay: RP-HPLC temperature profiling at pH 2, maximal retention time difference against control peptide C; self-association
[8] = biological target: Peptide D5, D-(V13K, A12L, A20L, A23L, V16K); assay: as above
[9] = peptide concentration 0.01 μg/ml
[10] = peptide concentration 100 μg/ml

CC[C@@H](C)[C@@H](NC(=O)[C@@H](CC(C)C)NC(=O)[C@@H](CCCCN)NC(=O)[C@@H](CC(C)C)NC(=O)[C@@H](CC(C)C)NC(=O)[C@H](NC(=O)[C@@H](Cc1c[nH]cn1)NC(=O)[C@@H](CC(C)C)NC(=O)[C@@H](CCCCN)NC(=O)[C@H](NC(=O)[C@@H](CCCCN)NC(=O)[C@@H](CCCCN)NC(=O)[C@@H](CC(C)C)NC(=O)[C@@H](CO)NC(=O)[C@@H](CCCCN)NC(=O)[C@@H](Cc1ccccc1)NC(=O)[C@H](NC(=O)[C@@H](CCCCN)NC(=O)[C@@H](CC(C)C)NC(=O)[C@@H](Cc1ccccc1)NC(=O)[C@@H](CO)NC(=O)[C@@H](CCCCN)NC(=O)[C@@H](Cc1c[nH]c2ccccc12)NC(=O)[C@@H](CCCCN)NC(C)=O)[C@H](C)O)[C@H](C)O)[C@H](C)O)C(=O)N[C@H](CO)C(=O)N[C@H](CO)C(N)=O [D5]
50% TFE [θ]222 (mean residue molar ellipticity) ([1]; benign buffer containing 50% trifluoroethanol): 35,500 deg cm^2/dmol
Benign [θ]222 (mean residue molar ellipticity) ([1]; benign conditions (100 mM KCl, 50 mM NaH2PO4/Na2HPO4, pH 7.0)): 3,700 deg cm^2/dmol
increase in antifungal activity relative to D4 (Zygomycota fungi; Zygomycota fungi): 16 fold
Fold improvement in antifungal activity (geometric mean data) compared to that of D4, Zygomycota fungi (Zygomycota fungi; relative to D4): 16.0 fold
Hydrophobicity tR (retention time in RP-HPLC) [2]: 80.4 min
reduction in viability (CFU/ml) ([3]; 100 μg/ml (31.7 μM), 7 days incubation vs day 0): about 100 fold
Anti-tuberculosis activity to H37Rv strain Fold (compared to D4) ([3]; further experiments, relative to D4): 4.9 fold
TNF Exp 1 [4, 9]: <0.015 ng/mL
TNF Exp 2 [4, 9]: <0.015 ng/mL
TNF Exp 1 ([4]; peptide concentration 1 μg/ml): <0.015 ng/mL
TNF Exp 2 ([4]; peptide concentration 1 μg/ml): <0.015 ng/mL
IL-6 Exp 1 (Interleukin-6 (IL-6); [9]): <3 pg/mL
IL-6 Exp 2 (Interleukin-6 (IL-6); [9]): <3 pg/mL
IL-6 Exp 1 (Interleukin-6 (IL-6); peptide concentration 1 μg/ml): <3 pg/mL
IL-6 Exp 1 (Interleukin-6 (IL-6); [10]): <3 pg/mL
IL-6 Exp 2 (Interleukin-6 (IL-6); [10]): <3 pg/mL
MIC GM (geometric mean of the MIC values), Gram-positive bacteria (Gram-positive bacteria; 24 h): 9.0 µg/mL
increase in antibacterial activity compared to D4 (Gram-positive bacteria; gram-positive bacteria): 2 fold
Fold improvement in antimicrobial activity (geometric mean data) compared to that of D4, Gram-positive bacteria (Gram-positive bacteria; relative to D4): 1.8 fold
Hemolytic activity HC50 (human red blood cells): 14.9 µM
antifungal activity relative to D4 (Ascomycota fungi): maintained the same level
increase in antibacterial activity compared to D4 (Gram-negative bacteria; gram-negative bacteria): 2 fold
Fold improvement in antimicrobial activity (geometric mean data) compared to that of D4, Gram-negative bacteria (Gram-negative bacteria; relative to D4): 2.2 fold
MIC GM (geometric mean of the MIC values), Gram-negative bacteria (Gram-negative bacteria; six Gram-negative strains, 128 μg/mL used where no activity at 64 μg/mL): 10.1 µg/mL

Ac-ELEKGGLEGEKGGKELEK-amide (Ac-ELEKGGLEGEKGGKELEK-NH2) [peptide C]
[θ]222 [5]: −3,950

CO[C@H]1/C=C/O[C@@]2(C)Oc3c(C)c(O)c4c(O)c(c(/C=N/N5CCN(C)CC5)c(O)c4c3C2=O)NC(=O)/C(C)=C\C=C\[C@H](C)[C@H](O)[C@@H](C)[C@@H](O)[C@@H](C)[C@H](OC(C)=O)[C@@H]1C [rifampin]
MIC ([6]; 168 h, read-out: Anti-tuberculosis activity MIC): 0.033 µM and 0.027 µg/mL
MIC ([6]; read-out: Anti-tuberculosis activity to H37Rv strain MIC): 0.033 µM and 0.027 µg/mL

Ac-ELEKGGLEGEKGGKELEK-NH2 [Control peptide C (random coil peptide)]
binding result [7]: no binding

KWKSFLKTFKSAKKTVLHTALKAISS (all residues D-amino acids; N-terminal Nα-acetyl; C-terminal amide) [Peptide D1, D-(V13K)]
PA (dimerization / self-association parameter) (Peptide D1, D-(V13K)): 2.78

KWKSFLKTFKSLKKTKLHTLLKLISS (all residues D-amino acids; N-terminal Nα-acetyl; C-terminal amide) [Peptide D5, D-(V13K, A12L, A20L, A23L, V16K)]
PA (dimerization / self-association parameter) [8]: 4.35
